Measured values reported in patent US20230357134A1, “AGENTS FOR USE IN THE TREATMENT OF AMYLOIDOSIS” (UCL BUSINESS LTD, priority 2020, published 2023).

Legend:
[1] = Rat oral pharmacokinetics; conditions: in vivo, 5 mg/kg, 5 mpk
isolated wild type TTR = molecular target: T1, isolated wild type TTR (Homo sapiens, UniProt P02766); assay: Displacement of 125I-T4 from isolated wild type TTR in buffer; conditions: concentration of ligand reducing binding of 125I-T4 by TTR by 50%; 125 nM TTR, pH 8.0, overnight 4° C.; mean of at least 3 replicates; read-out: D50 buffer
T1 construct: the non-covalently associated protomers, of mass 13,761, each contain 127 residues; His6 (N); TEV cleavage site (N); made in house; host or cells: E. coli BL21 (DE3)
Method: 3. Evaluation of Ligand Activity Based on Capacity to Displace ^125I-Thyroxine (T4) from TTR in Buffer/Human Plasma 3.1 Displacement of ^125I-T4 from Isolated Wild Type TR.
Competition of ligands with T4 for binding by TTR was assayed quantitatively by a previously described procedure (Kolstoe et al., 2010). Briefly, a solution of 125 nM TTR in 0.1 M Tris-HCl, 0.1 M NaCl and 0.001 M EDTA buffer, pH 8.0, was incubated overnight at 4° C. in the presence of 1.07 nM ^125I T4 (1,200 μCi/μg, 200 μCi/ml, Perkin Elmer) and increasing concentrations of inhibitor (0-5 μM) in 40 μl final volume. ^125I T4 bound by TTR was separated from unbound T4 by gel filtration chromatography using Micro Bio Spin 6 columns (Bio-Rad) previously equilibrated with the reaction buffer containing 1% w/v BSA. After counting with a Wizard2 gamma counter (Perkin-Elmer) for 60 s, percentage binding was plotted against the logarithm of the inhibitor concentration, and D50 (concentration of ligand reducing the binding of T4 by TTR by 50%) was determined using a four parameters dose-response curve with GraphPad Prism 5 (Table 1).

(2H, 13C, 15N) TTR = molecular target: T2, (2H, 13C, 15N) TTR (Homo sapiens, UniProt P02766); assay: 2D NMR [1H,15N] TROSY of TTR-ligand complexes; format: binding; conditions: equimolar ligand, 90 μM TTR, PBS pH 7.4, 310K
T2 construct: the non-covalently associated protomers, of mass 13,761, each contain 127 residues; His6 (N); TEV cleavage site (N); made in house; host or cells: E. coli BL21 (DE3)
Method: Using the same methodology as in Corazza 2019, we have studied the effect of equimolar addition of T304 or B23 to a sample of 90 μM (^2H, ^13C,^15N) TTR in PBS buffer, pH 7.4. 2D NMR [^1H,[…]] TROSY spectra were acquired with a Bruker AVANCE 800 MHz Spectrometer at 310K. After the addition of T304 or B23 to TTR some of the amide peaks of the apo form vanish and new peaks of the holo species appear indicating the binding of T304 or B23 by TTR. The changes occur for specific TTR residues where the protein senses the chemical effect of the ligands or where the ligands induce structural changes in the protein. […] Analysis of the chemical shift perturbations in the holo TTR structure confirms the involvement of the halogen binding pocket in the binding but also highlights an effect that is well beyond the ligand binding site, involving the outer helix and the outer beta strands.

[2] = molecular target: T3, TTR in whole human plasma (Homo sapiens, UniProt P02766); assay: Displacement of 125I-T4 from TTR in normal human plasma; format: binding; conditions: wild type TTR, 30 min 37° C. with ligand, immunoprecipitation, mean of at least 3 replicates, read-out: D50 plasma
T3 construct: TTR in whole plasma, from individuals homozygous for wild type TTR; from tissue; host or cells: whole human plasma
Method: 3.2 Displacement of ^125-T4 from TTR in Normal Human Plasma.
The displacement of ^125I-T4 from TTR in whole plasma, from individuals homozygous for wild type TTR, was studied by incubating plasma with each ligand at increasing concentrations for 30 min at 37° C., further incubation with […] followed by measurement of the radioactivity in the immunoprecipitate obtained with anti-TTR antibodies. […] Percentage binding was plotted against the logarithm of the inhibitor concentration, and D50 (concentration of ligand reducing the binding of T4 by TTR by 50%) was determined using a four parameter dose-response curve with GraphPad Prism 5 (Table 1).

[3] = molecular target: T4, native recombinant wild type TTR (Homo sapiens, UniProt P02766); assay: Kinetics of ligand binding by TTR (stopped flow quenching of intrinsic fluorescence); conditions: for T 1/2: TTR 1 μM with equimolar ligand, 37° C., PBS pH 7.4, t½ = ln 2/k
T4 construct: the non-covalently associated protomers, of mass 13,761, each contain 127 residues; His6 (N); TEV cleavage site (N); made in house; host or cells: E. coli BL21 (DE3)
Method: Ligand binding by native TTR quenches the intrinsic fluorescence of the protein. After mixing of ligands with TTR in solution, monitoring emission of the intrinsic fluorescence over time defines the rate at which the ligand is bound by the protein. The fast phase of these binding kinetics was characterized using an SFM 3000 stopped flow device coupled to a MOS500 spectrometer with a fluorescence detection system (Bio Logic, Claix, France) and a cell path length of 1.5 mm. TTR and ligands at 37° C. were mixed at final concentrations of 1 μM each in PBS pH 7.4 containing 0.9% v/v DMSO, and were excited at 280 nm for measurement of total fluorescence emission over 325 nm using a cut off filter. Kinetic data were acquired as the average of at least 3 experimental mixings and fitted to a first order reaction using the general formula y(t)=at +b+C exp (−kt), where y(t) is the observed fluorescence, a (slope) and b (offset) corresponding to the baseline. C and k are, respectively, amplitude and rate constant of the observed fluorescence change. Data were analysed using the Biokine software and values of half-life time (t½) correspond to ln 2/k. (Table 3).

Rat IV pharmacokinetics = conditions: in vivo, 1 mg/kg, 1 mpk, read-out: Rat IV PK t½ (converted)
[4] = molecular target: T5, recombinant Val122Ile TTR (Homo sapiens, UniProt P02766, V142I); assay: Mechano-enzymatic fibrillogenesis, TTR amyloid by ThT emission fluorescence; format: biochemical; conditions: equimolar ligand, 96 h pellets, normalized to 100 % without ligand, mean (SD)
T5 construct: the non-covalently associated protomers, of mass 13,761, each contain 127 residues; His6 (N); TEV cleavage site (N); made in house; host or cells: E. coli BL21 (DE3)
Method: (§1) Briefly, fibrillogenesis of recombinant Val122Ile TTR at 0.5 mg/ml (9 μM) in PBS, pH 7.4 was carried out in glass vials stirred at 1,400 rpm (IKA magnetic stirrer) and 37° C. in the presence and in the absence of trypsin (5 ng/μl). […] Each ligand was tested at 4 different concentrations (4.5, 9, 18, 36 μM respectively) corresponding to the following drug/TTR molar ratios of 0.5:1, 1:1, 2:1 and 4:1. Several dilutions of the drug stock solutions were made in order to add the same volume of DMSO to each sample. Control samples without drug were added with the same volume of DMSO only. To allow complete binding of ligand by TTR each sample was incubated for 30 min at 37° C. before addition of trypsin. Spectrophotometric turbidity at 400 nm was used to monitor fibril formation over time until it reached a plateau at 96 h. Aggregation of TTR in the presence of equimolar ligand concentrations was quantified as spectrophotometric turbidity at 400 nm as a proportion of 100% for aggregation of the protein in the absence of ligands (Table 2).
At the end of the 96 h aggregation, pellets were harvested from each protein sample by 20 min centrifugation at 11,600 g, thoroughly rinsed with PBS to remove non-bound ligand, resuspended with 100 μl PBS, pH 7.4 containing 10 μM ThT in Costar 96-well black-wall plates. Bottom fluorescence values (excitation 440 nm, emission 480 nm) were recorded using a BMG LABTECH FLUostar Omega plate reader. Each value was normalized to the ThT signal of the TTR sample without ligand (Table 2)

[5] = molecular target: T5, recombinant Val122Ile TTR; assay: Mechano-enzymatic fibrillogenesis, TTR aggregation by turbidity at 400 nm; format: biochemical; conditions: equimolar ligand, Val122Ile TTR 9 μM, trypsin, 96 h; 100 % = protein without ligand; mean (SD)
Method: as §1

[6] = background statement; cited from earlier work

Row | Cmax [1] [ng/mL] | IC50 (isolated wild type TTR) [nM] | binding mode by NMR chemical shift changes ((2H, 13C, 15N) TTR) | IC50 [2] [nM] | T 1/2 [3] [s] | half-life (Rat IV pharmacokinetics) [h] | % Aggregation (Fluorescence method) [4] | % Aggregation (Turbidity method) [5] | rate constant k of ligand-induced quenching reaction ([3]; TTR and ligand 1 μM each) [s⁻¹] | burst phase amplitude ([3]; millisecond time scale, fluorescence quenching) [%] | SMILES | bioavailability for an oral drug [6] | half-life in vivo [6]
1 | 2580 | 110 | occupancy of both binding sites | 9800 | 1.216 | 5.11 | 12.6 (4.42) % | 4.41 (1.99) % |  |  | CCc1oc(-c2cc(Cl)c(OCC[C@@H](O)[C@H](O)CCOc3c(Cl)cc(CCC(=O)O)cc3Cl)c(Cl)c2)nc1C(=O)O [Compound B23, 2-[4-[(3R,4R)-6-[4-(2-carboxyethyl)-2,6-dichloro-phenoxy]-3,4-dihydroxy-hexoxy]-3,5-dichloro-phenyl]-5-ethyl-oxazole-4-carboxylic acid] |  | 
2 | 316 | 100 |  | 2200 | 0.866 | 5.34 | 12.0 (1.06) % | 4.24 (1.96) % |  |  | O=C(O)CCc1cc(Cl)c(OCCCOCCOc2c(Cl)cc(Nc3ccncc3C(=O)O)cc2Cl)c(Cl)c1 [Compound B27, 4-[4-[2-[3-[4-(2-carboxyethyl)-2,6-dichloro-phenoxy]propoxy]ethoxy]-3,5-dichloro-anilino]pyridine-3-carboxylic acid] |  | 
3 |  |  |  |  |  |  |  |  | 0.202 | 8 | O=C(O)c1ccccc1Nc1cc(Cl)c(OCCCCCCCOc2c(Cl)cc(Nc3ccccc3C(=O)O)cc2Cl)c(Cl)c1 [mds84, reference compound] | very poor | short
